Values of other authors, collected in PMC10745768, “Stereoselective Synthesis and Antiproliferative Activity of Steviol-Based Diterpene 1,3-Aminoalcohol Regioisomers” (Molecules, 2023).
Like-named read-outs stand apart in the source and are kept apart here.

Key:
Design in all cases: method as in earlier work
Details in all cases: ref 24 (Bai D, Int J Mol Sci 2023, 10.3390/ijms24021121), cited from earlier work
HeLa cells = tested on: HeLa cells
SiHa cells = tested on: SiHa cells
A2780 cells = tested on: A2780 cells
MDA-MB-231 cells = tested on: MDA-MB-231 cells
NIH/3T3 fibroblast cells = tested on: NIH/3T3 fibroblast cells
MCF-7 cells = tested on: MCF-7 cells

N.N.[Cl][Pt][Cl] [Cisplatin, cisplatin]
Growth inhibition (%) ± SEM (HeLa cells; 10 μM): 42.61 ± 2.33%
Growth inhibition (%) ± SEM (HeLa cells; 30 μM): 99.93 ± 0.26%
Growth inhibition (%) ± SEM (SiHa cells; 10 μM): 60.98 ± 0.92%
Growth inhibition (%) ± SEM (SiHa cells; 30 μM): 88.95 ± 0.53%
Growth inhibition (%) ± SEM (A2780 cells; A2780, 10 μM): 83.57 ± 1.21%
Growth inhibition (%) ± SEM (A2780 cells; A2780, 30 μM): 95.02 ± 0.28%
Growth inhibition (%) ± SEM (MDA-MB-231 cells; MDA-MB-231, 10 μM): 67.51 ± 1.01%
Growth inhibition (%) ± SEM (MDA-MB-231 cells; MDA-MB-231, 30 μM): 87.75 ± 1.10%
Growth inhibition (%) ± SEM (NIH/3T3 fibroblast cells; NIH/3T3, 10 μM): 73.88 ± 1.63%
Growth inhibition (%) ± SEM (NIH/3T3 fibroblast cells; NIH/3T3, 30 μM): 97.10 ± 0.15%
Growth inhibition (%) ± SEM (MCF-7 cells; MCF-7, 10 μM): 53.03 ± 2.29%
Growth inhibition (%) ± SEM (MCF-7 cells; MCF-7, 30 μM): 86.90 ± 1.22%
